ChEMBL document CHEMBL1142393, “Design and characterization of mechanism-based inhibitors for the tyrosine aminomutase SgTAM” (Bioorg Med Chem Lett, 2008)

Experiment: Inhibition of Streptomyces globisporus TAM

Row | IC50 | Compound
1 | 7.3 mM | N[C@H](c1ccccc1)C(F)(F)C(=O)O
2 | 3 mM | COc1ccc([C@H]2O[C@@H]2C(=O)O)cc1
3 | 11.6 mM | O=C(O)[C@H]1O[C@@H]1c1ccc(F)cc1

Row | Compound | IC50
4 | O=C(O)[C@H]1O[C@@H]1c1ccccc1 | 5.8 mM
